Data taken from patent publication US5739158A, “Nitrogen-containing cyclohetero cycloalkylaminoaryl derivatives for CNS disorders” (The United States of America as represented by the …, priority 1992, dated 1998).

Assays:
[1] = tested on: apomorphine-induced climbing; assay: Blockage of apomorphine-induced climbing; assay type: in vivo, mouse (Swiss-Webster); details: 10 mg/kg; apomorphine 2 mg/kg s.c.; i.p. or s.c. pretreatment
Experimental: Compounds of the invention were evaluated for their ability to block apomorphine-induced climbing. The evaluation of the compounds followed the method outlined by Protais [Psychopharmcol., 50, 1-6, 1976]. Swiss-Webstermice, weighing 20-25 g, are pretreated with the compounds of the invention by i.p. or s.c. administration at various times before 2 mg/kg apomorphine is administered s.c. in a volume of 1 ml/kg. All test compounds are administered in a volume of 10 ml/kg. Mice are rated at 10 and 20 minutes after apomorphine administration using the following rating scale: (0) forepaws on the floor, (1) forefeet holding the bars, and (2) four paws holding bars. Dose-response curves are analyzed by a computerized Finney assay [Statistical Methods in Biological Assays, 2nd Edn., Hatner Pub. Co., New York (1964)].

[2] = tested on: CA1 region of the hippocampus; assay: Forebrain ischemia assay (bilateral carotid occlusion); assay type: in vivo, Mongolian gerbil; details: 50 mg/kg i.p. 30 minutes prior to carotid occlusion (15 min); 7 days; p<0.01
Experimental: Male Mongolian gerbils, 50-70 gm, were used as subjects. Compound No. 8 (50 mg/kg) was injected i.p. 30 minutes prior to carotid occlusion into 6 gerbils. In preparation for surgical procedures, the animals were lightly anesthetized with halothane and placed upside down on a heated pad with their snout within a nosecone. Nitrous oxide (70%): oxygen (30%) plus 0.5% halothane was circulated through the nosecone to provide continuous anesthesia throughout the surgical procedure. A midline incision was made in the neck and the carotid arteries were exposed. A length of suture thread was placed under each carotid. The thread was then tightened around each carotid and pressure applied to the thread to insure flow as occluded. Flow was occluded for 15 minutes and then the thread was removed. The carotids were visually inspected to confirm that reflow had occurred. The wound was then closed with autoclips and the gerbils allowed to recover. Following surgery, the gerbils were kept alive for 7 days. […] The degree of lesion in the CA1 region of the hippocampus was quantified by counting the pyramidal cell bodies in a 0.5 mm length of CA1 on the section corresponding to P 1.7 mm in the atlas of Loskota, Lnax and Verity [W. J. Loskota et al, A Stereotaxic Atlas of the Mongolian Gerbil Brain, Ann Arbor Science Publishers, Ann Arber, p. […]

sigma receptor = molecular target: T1, sigma receptor (Rattus norvegicus, UniProt Q9R0C9); assay: Radioreceptor assay in rat brain homogenate, displacement of [3H]-(+)-3-PPP; assay type: binding; details: rat brain membranes; 2 nM [3H]-(+)-3-PPP; 1 hr, room temperature; units ± SEM; read-out: Ki apparent
T1 construct: Brains from male Sprague-Dawley rats were homogenized; from tissue; host or cells: rat brain crude membranes (male Sprague-Dawley)
Experimental: Acad. Sci., 83, 8784-8788, 1986] to determine the relative potency of the compounds interacting with the sigma receptor. To determine the effects of the compounds in a sigma receptor assay, crude membrane preparations were prepared as follows. Brains from male Sprague-Dawley rats were homogenized in 10 volumes (wt/vol) of 0.32M sucrose, using a Polytron grinder. The homogenate was centrifuged at 900×G for 10 minutes at 4° C. The supernatant was collected and centrifuged at 22,000×g for 20 minutes at 4° C. The pellet was resuspended in 10 volumes of 50 mM Tris/HCl buffer (pH 7.4) and centrifuged at 22,000×g for 20 minutes at 4° C. The pellet was resuspended in 5 mM Tris/HCl buffer (pH 7.4) to give a final concentration of 250 mg/ml of the crude material. Incubation tubes were prepared in triplicate and contained 0.1 ml of tissue suspension, 2 nM of [^3 H]-(+)-1-propyl-3-(3-hydroxyphenyl)piperidine {[^3 H]-3-(+)-PPP}, and varying concentrations of the displacing ligand (0.1-1000 nM) in a final volume of 0.5 ml. After a 1 hr incubation at room temperature, the contents of the test tubes were filtered through GS filter paper which had been presoaked for at least 2 hours in 0.05% polyethyleneamine. The test tubes were rinsed three times with Tris/HCl buffer. Radioactivity on the filters was determined and […] were calculated from inhibition curves using the method of Cheng and Prusoff [Biochem. Pharmacol., 22, 3099-3108, 1973].

sigma receptors = molecular target: T2, sigma receptors (Cavia porcellus, UniProt Q60492); assay: Radioreceptor assay in guinea pig brain homogenate (P2 membranes), [3H]-(+)-3-PPP; assay type: binding
T2 construct: crude synaptosomal (P2) membrane fraction of guinea pig brain for sigma receptors; tissue Pel-Freeze, Rogers, Ak; host or cells: guinea pig brain minus cerebellum, crude synaptosomal (P2) membranes
T2 sequence (Q60492 whole entry): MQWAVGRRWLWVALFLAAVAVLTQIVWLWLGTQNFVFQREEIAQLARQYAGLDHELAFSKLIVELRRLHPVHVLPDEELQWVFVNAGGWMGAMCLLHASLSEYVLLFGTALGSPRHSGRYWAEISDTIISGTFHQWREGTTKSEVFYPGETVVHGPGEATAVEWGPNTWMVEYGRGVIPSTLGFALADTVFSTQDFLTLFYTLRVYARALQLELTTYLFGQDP

T1 sequence (Q9R0C9 whole entry): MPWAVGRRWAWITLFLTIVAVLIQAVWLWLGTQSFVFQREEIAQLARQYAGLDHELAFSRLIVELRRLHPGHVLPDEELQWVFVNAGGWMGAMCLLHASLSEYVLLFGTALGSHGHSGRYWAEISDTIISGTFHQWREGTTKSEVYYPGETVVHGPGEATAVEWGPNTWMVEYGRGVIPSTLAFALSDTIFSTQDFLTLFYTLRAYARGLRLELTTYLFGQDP

CN(CCc1ccc(Cl)c(Cl)c1)[C@@H]1CCCC[C@@H]1N1CCCC1 [Compound No. 8, 1R,2S-(+)-cis-N-[2-(3,4-dichlorophenyl)ethyl]-N-methyl-2-(1-pyrrolidinyl)cyclohexylamine]
Blockage of apomorphine-induced climbing [1]: completely blocked
Cell loss in CA1 region of hippocampus [2]: significantly reduced
Ki (sigma receptor): 20 ± 1 nM
Ki (sigma receptors): 6 ± 3 nM
